Among the data in PubChem BioAssay (NCI) are GI50 and TGI values, retold here.

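Method: 48-hour compound exposure of cells in 96-well plates, five concentrations, linear interpolation of endpoints. Here, GI50 denotes the concentration required for 50% inhibition of growth. TGI: total growth inhibition.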

Common to all, as to assay: NCI anticancer screen, dose series, 48 h
Assay [1] deals with COLO 205 colon.
Assay [2] deals with DU-145 prostate.
The test system of assay [3] is HCT-116 colon.
Assay [4] relates to IGROV1 ovarian.
Assay [5] relates to NCI-H226 lung.
Assay [6] relates to PC-3 prostate.
The test system of assay [7] is RPMI-8226 leukemia.
Assay [8] concerns SK-MEL-2 melanoma.
Assay [9] deals with SK-MEL-5 melanoma.
The subject of assay [10] is SW-620 colon.

For `COc1ccc(Nn2c(SCC(=O)Nc3nc(-c4ccc(Cl)cc4)cs3)nc(C)c2C)cc1`, the GI50 was 1.94 µM in assay [1]; 4.06 µM in assay [2]; 2.12 µM in [3]; 5.67 µM in assay [4]; 3.26 µM in assay [5]; 2.65 µM in assay [6]. In addition, the GI50 in [7] is 5.8 µM; in assay [8], 15.7 µM; in [9], 1.41 µM; in assay [10], 4.78 µM. Moreover, the TGI in assay [1] was 3.55 µM; in assay [2], above 100 µM; in [3], 14.1 µM; in assay [4] it was above 100 µM; in assay [5] it was above 100 µM; in [6], above 100 µM. In addition, the TGI in assay [7] was above 100 µM; in assay [8] it was 66.8 µM; in assay [9] it was 3.35 µM; in [10], above 100 µM.

Turning to `O=C(OCc1ccccc1)N1CCN(/[N+]([O-])=N/Oc2ccc([N+](=O)[O-])cc2[N+](=O)[O-])CC1`, the GI50 in assay [1] was 4.35 µM; in [2], 5.56 µM; in [3], 2.15 µM; in assay [4], 2.01 µM; in [5], 3.55 µM; in assay [6], 14.2 µM. In addition, the GI50 in [7] is 2.23 µM; in assay [8], 19.1 µM; in assay [9], 6.43 µM; in assay [10], 3.79 µM. For the same molecule, the TGI was found to be 18.6 µM in assay [1]; 18.7 µM in [2]; 7.55 µM in [3]; 23.2 µM in [4]; 26.3 µM in assay [5]; 28.5 µM in assay [6]. Further, the TGI is 6.1 µM in assay [7], 57 µM in assay [8], 21.1 µM in assay [9] and above 100 µM in assay [10].

Turning to `CCNCC(=O)O[C@]1(CC)C(=O)OCc2c1cc1n(c2=O)Cc2cc3ccccc3nc2-1`, the TGI is 16.5 µM in [1]; 1 µM in assay [2]; 3.29 µM in assay [3]; 24.5 µM in [4]; 1.29 µM in assay [5]; above 100 µM in assay [6]. In addition, the TGI in assay [7] is 4.07 µM; in assay [8] it was 7.92 µM; in [9], 1.27 µM; in assay [10], above 62.5 µM.

Regarding `CCCCCCCCCCCCCCCCCC1=NCCN1CS(=O)(=O)O`, the GI50 in [1] was 5.07 µM; in [2], 5.19 µM; in assay [3], 10.4 µM; in assay [4], 3.9 µM; in assay [5], 17.4 µM; in assay [6], 11.4 µM. In addition, the GI50 is 26.6 µM in assay [7], 27.7 µM in [8], 18.8 µM in assay [9] and 7.19 µM in assay [10]. The TGI in assay [1] was found to be 18.5 µM; in [2], 17.2 µM; in assay [3], 30.3 µM; in assay [4], 14.1 µM; in assay [5] it was 40.1 µM; in assay [6] it was 26.1 µM. Moreover, the TGI in assay [7] worked out at 90.1 µM; in assay [8], 67.4 µM; in [9], 40.5 µM; in [10], 31.2 µM.

`CS(=O)CCCCCN=C=S` (stereo not given): the GI50 in assay [1] is 3.21 µM; in assay [2], 2.81 µM; in assay [3], 2.86 µM; in assay [4], 4.88 µM; in assay [5] it was 17.5 µM; in assay [6], 11.6 µM. For the same molecule, the GI50 in assay [7] is 3.79 µM; in assay [8] it was 3.43 µM; in [9] it was 5.3 µM; in assay [10], 4.1 µM. For the same molecule, the TGI in assay [1] is 12 µM; in assay [2], 10.6 µM; in [3], 10.2 µM; in [4], 21.6 µM; in assay [5] it was 44.4 µM; in assay [6] it was 25.6 µM. Further, the TGI in assay [7] was found to be 14.5 µM; in assay [8], 14.7 µM; in assay [9], 17.9 µM; in assay [10] it was 15.9 µM.

In the case of `CC(=O)N1CC(Nc2ccc(OC(F)(F)F)cc2)=CC1=O`, the GI50 in assay [1] is 1.21 µM; in assay [2], 3.76 µM; in assay [3], 0.472 µM; in assay [4], 7.81 µM; in [5], 3.98 µM; in assay [6], 2.99 µM. Further, the GI50 in assay [7] was 2.67 µM; in [8], 0.52 µM; in [9] it was 0.377 µM; in assay [10] it was 0.476 µM. In addition, the TGI is 4.69 µM in assay [1]; above 100 µM in [2]; 23.3 µM in assay [3]; above 100 µM in [4]; 55.9 µM in [5]; above 100 µM in assay [6]. The TGI in assay [7] is above 100 µM; in assay [8] it was 95.9 µM; in assay [9], 12.1 µM; in [10], above 100 µM.

Consider `COc1ccc(NC(=O)n2nc(N)c3ccccc32)cc1OC`, for which the GI50 was 85.8 µM in assay [1]; 73.1 µM in [2]; 43.5 µM in assay [3]; 18.1 µM in assay [4]; 83.1 µM in [5]; 35.5 µM in [6]. For the same molecule, the GI50 is 21.1 µM in assay [7], 37.2 µM in [8], 27.9 µM in assay [9] and above 100 µM in assay [10]. Besides, the TGI in [1] was above 100 µM; in assay [2], above 100 µM; in assay [3], above 100 µM; in assay [4], 84 µM; in assay [5] it was above 100 µM; in assay [6] it was above 100 µM. Also, the TGI in [7] was 80.8 µM; in assay [8], above 100 µM; in [9], above 100 µM; in [10], above 100 µM.

On to `NC(N)=NS(=O)(=O)c1ccc(NCc2c3ccccc3nc3ccccc23)cc1`, for which the TGI was above 100 µM in [1]; above 100 µM in [2]; 56.2 µM in assay [3]; 65 µM in [4]; 4.85 µM in assay [5]; above 100 µM in assay [6]. Further, the TGI in assay [7] is above 72.5 µM; in [8] it was above 67 µM; in assay [9] it was 62.8 µM; in assay [10], above 87.7 µM.
